From patent US20240246979A1, “cGAS INHIBITORS” (Eli Lilly and Company, priority 2022, published 2024)

Assays:
cGAS [1] = molecular target: T1, cGAS (Homo sapiens, UniProt Q8N884); test: In vitro inhibition assay of cGAS activity (cGAMP production, RapidFire mass spectrometry); type: biochemical; parameters: Insert cDNA encoding full-length of human cGAS; His6; made in house; host or cells: E. coli BL21(DE3); conditions: 10 nM recombinant human cGAS, 60 nM 75-bp dsDNA, 50 μM ATP, 50 μM GTP, 3 hrs
Experimental: Expression and Purification of Recombinant cGAS Protein: Insert cDNA encoding full-length of human cGAS into a modified bacterial expression vector containing an in-frame His6-tag. Induce the E. coli strain BL21(DE3) harboring the plasmid with 1 mM IPTG (Isopropyl β-D-1-thiogalactopyranoside) at 18° C. overnight. Purify the His6-tagged cGAS protein over HISpur Ni-NTA resin in the presence of benzonase and RNase followed by Superdex 200 size exclusion chromatography with storage buffer (50 mM Tris-HCl pH 7.5, 300 mM NaCl, 1 mM DTT, 10% glycerol).
In vitro inhibition assay of cGAS activity: Add a 5 μL mixture containing 10 mM Tris-Cl pH 7.5, 50 mM NaCl, 5 mM MgCl2, 1 mM DTT, 0.01% Triton X-100, 60 nM 75-bp dsDNA, 50 μM ATP, 50 μM GTP, 10 nM of recombinant human cGAS, and serial dilutions of a test compound in DMSO to a 384-well plate and incubate at ambient temperature for 3 hrs. Quench the reaction by the addition of 100 μL of stop solution containing 0.1% formic acid and 0.1 μM internal standard (3′3′-difluoro cGAMP). Measure the amount of cGAMP produced by RapidFire 365 mass spectrometry and evaluate inhibitory effect of a compound by plotting percent specific inhibition of cGAMP production against log concentration of the test compound. Calculate IC50 values using a 4-parameter non-linear logistic equation (y=(S0+((Sinf−S0)/(1+((qAC50/x)^nHill))))).

cGAS [2] = molecular target: T1, cGAS; test: Cellular assay to measure cGAS activity (IFNb AlphaLISA in THP1 cells stimulated by RDG-Adenovirus-GFP); type: cell-based; parameters: host or cells: THP1 cells differentiated with PMA and stimulated with RDG-Adenovirus-GFP; conditions: PMA-differentiated THP1 cells, RDG-Adenovirus-GFP at 1000 MOI; inhibition of IFNb production as marker for cGAS activity
Experimental: Cellular assay to measure cGAS activity: Use THP1 cell line from ATCC to determine inhibition of cGAS activity by test compounds in human cells. Plate cells on 96-well plates at 0.2×10^6/well and differentiate with phorbol myristate acetate (PMA) at 37° C./5% CO2. After 24 hours, replace PMA containing media with media lacking PMA and further incubate overnight. Stimulate cells were then by RDG-Adenovirus-GFP (Vector Biolabs #1768) at 1000 MOI for 4 hours prior to the addition of test compounds. After overnight incubation, transfer 10 μL of the media from each well to a new plate for IFNb analysis as a marker for cGAS activity. Measure quantification of IFNb with an IFNb AlphaLISA Detection kit (Perkin Elmer AL3133F) by mixing the acceptor beads with the cell supernatant followed by the addition of the biotinylated antibody and donor beads. Measure the relative fluorescence signal produced from the interaction of the donor and acceptor beads by a PHERAStar AlphaLISA protocol and evaluate the inhibitory effect of a compound by plotting specific inhibition of IFNb production against log concentration of the test compound. Calculate IC50 values using a 4-parameter non-linear logistic equation (y=(S0+((SInf−S0)/(1+((qAC50/x)^nHill))))).

T1 sequence (Q8N884 whole entry): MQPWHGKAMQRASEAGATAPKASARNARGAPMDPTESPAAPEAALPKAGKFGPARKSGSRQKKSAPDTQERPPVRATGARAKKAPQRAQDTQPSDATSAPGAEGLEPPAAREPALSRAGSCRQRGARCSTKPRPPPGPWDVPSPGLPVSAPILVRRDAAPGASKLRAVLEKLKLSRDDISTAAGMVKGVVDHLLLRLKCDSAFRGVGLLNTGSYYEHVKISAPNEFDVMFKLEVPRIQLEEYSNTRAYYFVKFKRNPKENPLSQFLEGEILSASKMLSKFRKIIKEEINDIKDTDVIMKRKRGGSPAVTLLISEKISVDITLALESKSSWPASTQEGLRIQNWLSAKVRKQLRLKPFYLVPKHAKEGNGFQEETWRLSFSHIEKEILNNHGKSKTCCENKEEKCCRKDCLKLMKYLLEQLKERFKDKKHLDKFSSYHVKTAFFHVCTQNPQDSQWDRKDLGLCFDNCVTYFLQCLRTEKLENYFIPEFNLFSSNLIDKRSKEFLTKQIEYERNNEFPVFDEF

Row | IC50 (cGAS [1]) [µM] | IC50 (cGAS [2]) [µM] | SMILES
1 | 0.0277 | 0.473 | COCC[C@@H]1CNC(=O)[C@H](C)c2c1[nH]c1c(Cl)c(Cl)cc(NCCO)c21 (racemic) [Example 170, cis 7,8-Dichloro-10-((2-hydroxyethyl)amino)-5-(2-methoxyethyl)-1-methyl-3,4,5,6-tetrahydroazepino[4,5-b]indol-2(1H)-one]
2 | 3.73 | > 10 | C[C@@H]1CNC(=O)[C@@H](C)c2c1[nH]c1c(Cl)c(Cl)cc(NC(=O)CO)c21 (single isomer, unassigned) [Example 161, N-((1S,5R)-7,8-Dichloro-1,5-dimethyl-2-oxo-1,2,3,4,5,6-hexahydroazepino[4,5-b]indol-10-yl)-2-hydroxyacetamide or N-((1R,5S)-7,8-Dichloro-1,5-dimethyl-2-oxo-1,2,3,4,5,6-hexahydroazepino[4,5-b]indol-10-yl)-2-hydroxyacetamide]
3 | 0.0156 | 0.168 | Cn1ncc(-c2cc(Cl)c(Cl)c3[nH]c4c(c23)CC(=O)NC[C@H]4CCO)n1 (single isomer, unassigned) [Example 8A]
4 | 0.0226 | 0.885 | COCCNc1cc(Cl)c(Cl)c2[nH]c3c(c12)C(C)C(=O)NCC3 (racemic) [Example 46, 7,8-Dichloro-10-((2-methoxyethyl)amino)-1-methyl-3,4,5,6-tetrahydroazepino[4,5-b]indol-2(1H)-one]
5 | 1.89 | > 10 | COCCOc1cc(Cl)c(Cl)c2[nH]c3c(c12)[C@H](C)C(=O)NCC3(C)C (single isomer, unassigned) [Example 185, (S)-7,8-Dichloro-10-(2-methoxyethoxy)-1,5,5-trimethyl-3,4,5,6-tetrahydroazepino[4,5-b]indol-2(1H)-one or (R)-7,8-Dichloro-10-(2-methoxyethoxy)-1,5,5-trimethyl-3,4,5,6-tetrahydroazepino[4,5-b]indol-2(1H)-one]
6 | 0.0112 | 0.755 | C[C@@H]1C(=O)NCCc2[nH]c3c(Cl)c(Cl)cc(OCC(F)(F)CO)c3c21 (single isomer, unassigned) [Example 73]
7 | 0.0225 | 0.649 | CC1C(=O)NCCc2c1c1c(NC(=O)CO)cc(Cl)c(Cl)c1n2C(F)F (stereo not shown) [Example 144, N-(7,8-Dichloro-6-(difluoromethyl)-1-methyl-2-oxo-1,2,3,4,5,6-hexahydroazepino[4,5-b]indol-10-yl)-2-hydroxyacetamide]
8 | 0.111 | – | Cn1ccc(-c2cc(Cl)c(Cl)c3[nH]c4c(c23)CC(=O)NCC4)n1 [Example 3, 7,8-Dichloro-10-(1-methyl-1H-pyrazol-3-yl)-3,4,5,6-tetrahydroazepino[4,5-b]indol-2(1H)-one]
9 | 0.141 | – | Cn1c2c(c3c(OCC#N)cc(Cl)c(Cl)c31)CC(=O)NCC2 [Example 21, 2-((7,8-Dichloro-6-methyl-2-oxo-1,2,3,4,5,6-hexahydroazepino[4,5-b]indol-10-yl)oxy)acetonitrile]

Row | SMILES | IC50 (cGAS [1]) [µM] | IC50 (cGAS [2]) [µM]
10 | C[C@@H]1C(=O)NC[C@H](C)c2[nH]c3c(Cl)c(Cl)cc(CC#N)c3c21 (single isomer, unassigned) [Example 152] | 0.948 | 5.31
11 | CC(C)(O)C[C@@H]1CNC(=O)Cc2c1[nH]c1c(Cl)c(Cl)cc(CC#N)c21 (single isomer, unassigned) [Example 106] | 0.188 | 0.861
12 | Cn1c2c(c3c(OCC#N)cc(Cl)c(Cl)c31)CC(=O)NC[C@H]2CC(C)(C)O (single isomer, unassigned) [Example 111, (R)-2-((7,8-Dichloro-5-(2-hydroxy-2-methylpropyl)-6-methyl-2-oxo-1,2,3,4,5,6-hexahydroazepino[4,5-b]indol-10-yl)oxy)acetonitrile or (S)-2-((7,8-Dichloro-5-(2-hydroxy-2-methylpropyl)-6-methyl-2-oxo-1,2,3,4,5,6-hexahydroazepino[4,5-b]indol-10-yl)oxy)acetonitrile] | 0.0131 | 0.231
